We go through 24 molecules from patent US20090028925A1, “Novel Phosphinic Acid-Containing Thyromimetics” (priority 2005, published 2009).

In general, Ki refers to the dissociation constant of the complex between target and ligand, obtained from inhibition or displacement.

Like-named read-outs stand apart in the source and are kept apart here.

Assay [1] concerns the target T1, human thyroid hormone receptors TRα1 (Homo sapiens, UniProt P10827).
T1 construct: made in house; host or cells: Sf9 insect cells (baculovirus)
T1 sequence (P10827 1-410 isoform P10827-2): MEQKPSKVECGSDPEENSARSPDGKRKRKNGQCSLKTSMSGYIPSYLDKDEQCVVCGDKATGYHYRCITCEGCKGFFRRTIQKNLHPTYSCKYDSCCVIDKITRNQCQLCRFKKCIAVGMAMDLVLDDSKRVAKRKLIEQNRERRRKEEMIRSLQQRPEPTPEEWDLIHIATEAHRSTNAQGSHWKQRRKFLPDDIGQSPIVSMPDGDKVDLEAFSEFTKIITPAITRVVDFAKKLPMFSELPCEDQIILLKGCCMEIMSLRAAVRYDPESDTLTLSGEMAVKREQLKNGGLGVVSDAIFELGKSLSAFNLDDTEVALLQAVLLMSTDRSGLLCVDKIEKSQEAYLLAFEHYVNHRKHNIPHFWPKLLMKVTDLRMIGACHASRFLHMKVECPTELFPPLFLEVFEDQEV
T1 sequence (P19793 1-462 partner): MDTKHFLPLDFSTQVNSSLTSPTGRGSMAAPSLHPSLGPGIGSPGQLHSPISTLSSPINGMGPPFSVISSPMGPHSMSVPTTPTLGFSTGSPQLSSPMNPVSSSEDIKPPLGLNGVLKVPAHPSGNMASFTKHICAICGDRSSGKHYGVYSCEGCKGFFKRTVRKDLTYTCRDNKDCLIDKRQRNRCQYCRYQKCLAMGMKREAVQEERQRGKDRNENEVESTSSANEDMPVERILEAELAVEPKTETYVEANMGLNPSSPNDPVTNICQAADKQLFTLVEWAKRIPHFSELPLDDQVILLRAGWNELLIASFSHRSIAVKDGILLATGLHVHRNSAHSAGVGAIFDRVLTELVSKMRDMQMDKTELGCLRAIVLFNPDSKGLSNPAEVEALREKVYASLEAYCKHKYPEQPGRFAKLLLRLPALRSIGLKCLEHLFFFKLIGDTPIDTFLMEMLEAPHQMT
Briefly: Receptor binding to TRα1 (gel filtration and scintillation proximity assay, labeled T3). Here is the method:
(§1) Methods: Baculoviruses expressing TRα1, TRβ1 and RXRα were generated using cDNA and other reagents from Invitrogen (Carlsbad, Calif.). To produce TR/RXR heterodimer proteins, the sf9 insect cells were first grown to a density of 1-5×10^5 cells/mL. […] and RXRα baculovirus stocks were added to the cell culture with a ratio of 1 to 1 (multiplicity of infection=10). The cells were harvested three days after the infection.
(§2) Binding of compounds to either the TRα1 or TRβ1 were also performed by means of scintillation proximity assays (SPA). The SPA assay, a common method used for the quantitation of receptor-ligand equilibria, makes use of special beads coated with a scintillant and a capture molecule, copper, which binds to the histidine-tagged α or β receptor.

For assay [2], the target named is T2, human thyroid hormone receptors TRβ1 (Homo sapiens, UniProt P10828).
T2 construct: made in house; host or cells: Sf9 insect cells (baculovirus)
T2 sequence (P10828 1-461): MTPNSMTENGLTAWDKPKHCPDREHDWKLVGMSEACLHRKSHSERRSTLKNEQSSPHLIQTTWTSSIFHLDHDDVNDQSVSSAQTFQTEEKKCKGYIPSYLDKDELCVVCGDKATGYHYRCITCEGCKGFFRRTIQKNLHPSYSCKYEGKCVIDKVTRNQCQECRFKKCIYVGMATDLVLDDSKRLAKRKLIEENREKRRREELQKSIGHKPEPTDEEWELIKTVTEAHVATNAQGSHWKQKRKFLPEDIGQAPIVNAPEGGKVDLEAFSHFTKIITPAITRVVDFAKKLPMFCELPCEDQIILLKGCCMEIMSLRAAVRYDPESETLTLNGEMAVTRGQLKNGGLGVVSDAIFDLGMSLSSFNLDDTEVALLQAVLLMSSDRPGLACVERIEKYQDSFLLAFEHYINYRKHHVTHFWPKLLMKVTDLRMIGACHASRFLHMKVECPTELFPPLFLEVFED
T2 sequence (P19793 1-462 partner): T1 sequence (P19793 1-462 partner)
Briefly: Receptor binding to TRβ1 (gel filtration and scintillation proximity assay, labeled T3). Here is the method:
as §1, §2
(In general: In gel filtration, larger molecules generally elute earlier.)

Regarding `O=P(O)(O)CCc1cc(I)c(Oc2ccc(O)c(I)c2)c(I)c1` [Compound 3, 2-[3,5-diiodo-4-(4′-hydroxy-3′-iodophenoxy)phenyl]ethylphosphonic acid], the inhibitory constant (Ki) was 46 nM in assay [1] (SPA data, read-out: Ki TRα) and 5.42 nM in assay [2] (SPA data, read-out: Ki TRβ).

Consider `Cc1cc(C(=O)CP(=O)(O)O)cc(C)c1Cc1ccc(O)c(Cc2ccccc2)c1` [Compound 41, [3,5-dimethyl-4-[3′-benzyl-4′-hydroxy-benzyl]benzoyl]methylphosphonic acid], for which the Ki in assay [1] (SPA data, read-out: Ki TRα) is greater than 2000 nM; in assay [2] (SPA data, read-out: Ki TRβ), 181 nM.

With `Cc1cc(OC[P@]2(=O)OCC[C@@H](c3ccncc3)O2)cc(C)c1Cc1ccc(O)c(C(C)C)c1` [Compound 13-5-trans, 2-[(3,5-dimethyl-4-(4′-hydroxy-3′-iso-propylbenzyl)phenoxy)methyl]-4-(pyrid-4-yl)-2-oxo-2λ^5-[1,3,2]-dioxaphosphonane], the inhibitory constant (Ki) in assay [1] (SPA data, read-out: Ki TRα) was determined as 354 nM; in assay [2] (SPA data, read-out: Ki TRβ), 281 nM.

Turning to `Cc1cc(NC(=O)P(=O)(O)O)cc(C)c1Oc1ccc(O)c(C(C)C)c1` [Compound 1, N-[3,5-dimethyl-4-(3′-iso-propyl-4′-hydroxyphenoxy)]carbamoylphosphonic acid], the Ki in assay [1] (read-out: Ki TRα) stood at 285 nM; in assay [2] (read-out: Ki TRβ), 36.1 nM.

Regarding `Cc1cc(Cc2c(C)cc(OCP(=O)(O)O)cc2C)ccc1O` [Compound 7-7, [3,5-dimethyl-4-[4′-hydroxy-3′-methylbenzyl]phenoxy]methylphosphonic acid], the Ki worked out at 898 nM in assay [1] (SPA data, read-out: Ki TRα) and 90 nM in assay [2] (SPA data, read-out: Ki TRβ).

As to `COc1ccc(Cc2c(C)cc(OCP(=O)(O)O)cc2C)cc1C(C)C` [Compound 7-4, [3,5-dimethyl-4-(3′-iso-propyl-4′-methoxybenzyl)phenoxy]methylphosphonic acid], the Ki in assay [1] (SPA data, read-out: Ki TRα) is greater than 2000 nM; in assay [2] (SPA data, read-out: Ki TRβ) it was greater than 2000 nM.

Regarding `COc1cc(CCP(=O)(O)O)cc(OC)c1Cc1ccc(O)c(C(C)C)c1` [Compound 24, 2-[3,5-dimethoxy-4-(4′-hydroxy-3′-isopropylbenzyl)phenyl]ethylphosphonic acid], the Ki in assay [1] (SPA data, read-out: Ki TRα) is greater than 2000 nM; in assay [2] (SPA data, read-out: Ki TRβ), greater than 2000 nM.

In the case of `CC(=O)Nc1ccc(Cc2c(C)cc(OCP(=O)(O)O)cc2C)cc1C(C)C` [Compound 7-12, [4-(4′-acetylamino-3′-iso-propylbenzyl)-3,5-dimethylphenoxy]methylphosphonic acid], the Ki in assay [1] (SPA data, read-out: Ki TRα) is greater than 2000 nM; in assay [2] (SPA data, read-out: Ki TRβ), 61 nM.

On to `CCOC(=O)[C@@H](NP(=O)(COc1cc(C)c(Cc2ccc(O)c(C(C)C)c2)c(C)c1)N[C@H](C(=O)OCC)C(C)C)C(C)C` [Compound 15-3, di-N-(1-ethoxycarbonyl-2-methyl-propylamino)[3,5-dimethyl-4-(3′-iso-propyl-4′-hydroxybenzyl)phenoxy]methylphosphonamide], for which the Ki in assay [1] (SPA data, read-out: Ki TRα) was greater than 2000 nM; in assay [2] (SPA data, read-out: Ki TRβ), greater than 2000 nM.

Take `Cc1cc(OCP(=O)(O)O)cc(C)c1Cc1ccc(O)c(C(=O)O)c1` [Compound 35, [3,5-dimethyl-4-(3′-carboxyl-4′-hydroxy-benzyl)phenoxy]methylphosphonic acid]: the Ki in assay [1] (SPA data, read-out: Ki TRα) is greater than 2000 nM; in assay [2] (SPA data, read-out: Ki TRβ) it was greater than 2000 nM.

As to `Cc1cc(OCP(=O)(O)O)cc(C)c1C(=O)c1ccc(O)c(C(C)C)c1` [Compound 25, [3,5-dimethyl-4-(3′-iso-propyl-4′-hydroxybenzoyl)phenoxy]methylphosphonic acid], the results for the Ki in assay [1] and in assay [2] were greater than 2000 nM and 363 nM, respectively.

Turning to `CCc1cc(Cc2c(C)cc(CCP(=O)(O)O)cc2C)ccc1O` [Compound 24-4, 2-[3,5-dimethyl-4-(3′-Ethyl-4′-hydroxy-benzyl)phenyl]ethylphosphonic acid], the Ki was greater than 2000 nM in assay [1] (SPA data, read-out: Ki TRα) and 92 nM in assay [2] (SPA data, read-out: Ki TRβ).

On to `Cc1cc(OCP(=O)(O)O)cc(C)c1Sc1ccc(O)c(C(C)C)c1` [Compound 43, [3,5-dimethyl-4-S-[(4′-hydroxy-3′-iso-propylphenyl)sulfanyl]phenoxy]methylphosphonate], for which the Ki in assay [1] (SPA data, read-out: Ki TRα) was found to be 363 nM; in assay [2] (SPA data, read-out: Ki TRβ), 108 nM.

In the case of `CC(C)c1cc(Oc2c(Cl)cc(C(=O)CP(=O)(O)O)cc2Cl)ccc1O` [Compound 21, 2-[3,5-dichloro-4-(4′-hydroxy-3′-iso-propylphenoxy)phenyl]-2-oxoethylphosphonic acid], the Ki in assay [1] (SPA data, read-out: Ki TRα) is greater than 1400 nM; in assay [2] (SPA data, read-out: Ki TRβ) it was greater than 180 nM.

Regarding `Cc1cc(OCP(=O)(O)O)cc(C)c1Cc1ccc(O)c(C(=O)NC(C)C)c1` [Compound 36, [3,5-dimethyl-4-(4′-hydroxy-3′-iso-propylcarbamoylbenzyl)-phenoxy]methylphosphonic acid], the Ki in assay [1] (SPA data, read-out: Ki TRα) is greater than 2000 nM; in assay [2] (SPA data, read-out: Ki TRβ), 106 nM.

On to `Cc1cc(OCCP(=O)(O)O)cc(C)c1Cc1ccc(O)c(C(C)C)c1` [Compound 26, 2-[3,5-dimethyl-4-(3′-iso-propyl-4′-hydroxybenzyl)phenoxy]ethylphosphonic acid], for which the results for the Ki in assay [1] (read-out: Ki TRα) and in assay [2] (read-out: Ki TRβ) were 594 nM and 87 nM, respectively.

`Cc1cc(OCP(=O)(O)O)cc(C)c1Nc1ccc(O)c(C(C)C)c1` [Compound 20, [3,5-dimethyl-4-N-(4′-hydroxy-3-iso-propylphenylamino)phenoxy]methylphosphonic acid]: the Ki is greater than 2000 nM in assay [1] (SPA data, read-out: Ki TRα) and greater than 2000 nM in assay [2] (SPA data, read-out: Ki TRβ).

Regarding `CC(C)c1cc(Cc2c(Cl)cc(C(=O)CP(=O)(O)O)cc2Cl)ccc1F` [Compound 41-3, 2-[3,5-dichloro-4-(4-fluoro-iso-propyl-benzyl)-phenyl]-2-oxo-ethylphosphonic acid], the Ki was greater than 2000 nM in assay [1] (SPA data, read-out: Ki TRα) and 280 nM in assay [2] (SPA data, read-out: Ki TRβ).

Turning to `CC(C)c1cc(Oc2c(I)cc(CCP(=O)(O)O)cc2I)ccc1O` [Compound 4, 2-[3,5-diiodo-4-(4′-hydroxy-3′-iso-propylphenoxy)phenyl]ethylphosphonic acid], the Ki in assay [1] (SPA data, read-out: Ki TRα) worked out at 14.1 nM; in assay [2] (SPA data, read-out: Ki TRβ), 0.99 nM.

Take `O=P(O)(O)Cc1cc(Cl)c(Oc2ccc(O)c(S(=O)(=O)N[C@@H]3C[C@H]4CC[C@@H]3C4)c2)c(Cl)c1` (relative stereo) [Compound 10, 3,5-dichloro-4-[4′-hydroxy-3′-(N-exo-2-norbornylsulfonamido)phenoxy]benzylphosphonic acid]: the Ki in assay [1] (SPA data, read-out: Ki TRα) is greater than 2000 nM; in assay [2] (SPA data, read-out: Ki TRβ) it was greater than 2000 nM.

Take `Cc1cc(OCP(=O)(O)O)cc(C)c1Cc1ccc(O)c(I)c1` [Compound 34, [3,5-dimethyl-4-(4′-hydroxy-3′-iodobenzyl)phenoxy]methylphosphonic acid]: the Ki in assay [1] (SPA data, read-out: Ki TRα) came to 118 nM; in assay [2] (SPA data, read-out: Ki TRβ), 6.5 nM.

`Cc1cc(OC[P@]2(=O)OCC[C@@H](c3cccc(Cl)c3)O2)cc(C)c1Cc1ccc(O)c(C(C)C)c1` [Compound 13-1-trans, (S)-2-[(3,5-dimethyl-4-(4′-hydroxy-3′-iso-propylbenzyl)phenoxy)methyl]-4-(3-chlorophenyl)-2-oxo-2λ^5-[1,3,2]-dioxaphosphonane]: the Ki in assay [1] (SPA data, read-out: Ki TRα) was 1740 nM; in assay [2] (SPA data, read-out: Ki TRβ) it was 1320 nM.

With `Cc1cc(CP(=O)(O)O)cc(C)c1Oc1ccc(O)c(C(C)C)c1` [Compound 19-3, [3,5-dimethyl-4-(4′-hydroxy-3′-iso-propylphenoxy)]benzylphosphonic acid], the Ki was 1760 nM in assay [1] (read-out: Ki TRα) and 128 nM in assay [2] (SPA data, read-out: Ki TRβ).

Regarding `Cc1cc(OC[P@]2(=O)OCC[C@@H](c3cccnc3)O2)cc(C)c1Cc1ccc(O)c(C(C)C)c1` [Compound 13-4-trans, 2-[(3,5-dimethyl-4-(4′-hydroxy-3′-iso-propylbenzyl)phenoxy)methyl]-4-(pyrid-3-yl)-2-oxo-2λ^5-[1,3,2]-dioxaphosphonane], the Ki in assay [1] (SPA data, read-out: Ki TRα) turned out to be 2130 nM; in assay [2] (SPA data, read-out: Ki TRβ), 1810 nM.
